Laboratory results published in patent publication US5447954A, “Phenylderivate as inhibitors of ATP citrate lyase” (SmithKline Beecham p.l.c., priority 1992, dated 1995).
Structures can show the parent of a compound that is named as a salt. Where two headings read alike, the source gives them in different places. One block for each molecule: values may come before it.

Columns and labels:
rat ATP citrate lyase = molecular target: T1, rat ATP citrate lyase (Rattus norvegicus, UniProt P16638); assay: Assay of ATP Citrate lyase in the presence of inhibitors (rat enzyme); format: biochemical; details: 100 μM citrate, pH 8.0, 25° C.
T1 construct: prior to removal of the livers; ATP Citrate lyase was prepared according to the method of Wraight et al; from tissue; host or cells: liver of male Wistar rats (fasted, then fed a high carbohydrate diet)
T1 sequence (P16638 1-1100): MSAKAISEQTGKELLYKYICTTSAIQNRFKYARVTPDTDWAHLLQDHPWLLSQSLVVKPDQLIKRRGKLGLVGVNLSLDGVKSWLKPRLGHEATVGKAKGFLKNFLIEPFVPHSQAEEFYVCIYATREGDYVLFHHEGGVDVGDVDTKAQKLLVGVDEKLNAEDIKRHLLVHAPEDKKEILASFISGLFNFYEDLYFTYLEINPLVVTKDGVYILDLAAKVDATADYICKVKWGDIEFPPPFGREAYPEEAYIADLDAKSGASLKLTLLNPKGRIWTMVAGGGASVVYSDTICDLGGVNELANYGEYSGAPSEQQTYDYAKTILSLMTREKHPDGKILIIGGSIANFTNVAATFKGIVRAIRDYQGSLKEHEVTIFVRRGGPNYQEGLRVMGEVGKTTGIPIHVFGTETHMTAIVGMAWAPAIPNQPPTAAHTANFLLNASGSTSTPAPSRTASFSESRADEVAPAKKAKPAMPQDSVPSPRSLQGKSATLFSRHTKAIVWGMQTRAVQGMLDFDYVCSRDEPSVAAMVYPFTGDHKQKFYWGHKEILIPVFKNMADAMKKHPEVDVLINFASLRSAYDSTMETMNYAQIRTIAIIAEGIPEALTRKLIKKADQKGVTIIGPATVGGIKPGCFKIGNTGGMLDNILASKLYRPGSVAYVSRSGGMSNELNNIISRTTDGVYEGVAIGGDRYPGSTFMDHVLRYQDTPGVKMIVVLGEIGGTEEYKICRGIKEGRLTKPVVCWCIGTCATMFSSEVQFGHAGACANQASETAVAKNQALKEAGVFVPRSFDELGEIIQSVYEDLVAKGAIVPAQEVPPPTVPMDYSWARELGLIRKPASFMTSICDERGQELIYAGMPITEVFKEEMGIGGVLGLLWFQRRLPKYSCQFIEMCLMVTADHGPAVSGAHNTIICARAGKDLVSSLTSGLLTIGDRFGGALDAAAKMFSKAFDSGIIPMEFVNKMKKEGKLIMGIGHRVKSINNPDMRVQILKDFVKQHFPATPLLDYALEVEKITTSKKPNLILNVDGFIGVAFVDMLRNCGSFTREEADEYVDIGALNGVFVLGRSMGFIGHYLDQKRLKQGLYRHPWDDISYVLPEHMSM
Method: 1. RAT ATP CITRATE LYASE (ACL) ASSAY
Purification of ATP Citrate lyase-human and rat enzymes
Male Wistar rats were fasted for 24 h, then fed on a high carbohydrate diet for 72 h prior to removal of the livers. ATP Citrate lyase was prepared according to the method of Wraight et al (Anal. Biochem., 1985, 144, 604-609) with modifications for large scale purification according to Wells (Eur. J. Biochem., 1991, 199, 163-168). Protein obtained by this method was pure as judged by SDS-PAGE.
Assay of ATP Citrate lyase in the presence of inhibitors
(§1) ATP Citrate lyase activity was assayed at 25° C. by reducing the oxaloacetate produced with malate dehydrogenase and NADH while monitoring at 340 nm using a Beckman DU50 spectrophotometer (according to the method of Linnet al (J. Biol. Chem., 1979, 254, 1691-1698)). Briefly, ATP citrate lyase (human or rat) was added to a 1 ml cuvette containing 50 mM Tris/HCl, pH=8.0, 0.2 mM NADH, 10 mM MgCl2, 10 mM KCl, 5 mM ATP, 200 μM coenzyme A, 10 mM dithiothreitol and malate dehydrogenase. An aqueous solution of inhibitor was added (for inhibitors which were insoluble in water, a stock solution was prepared in DMSO. However the final DMSO concentration in the cuvette was not allowed to exceed 1%.). Finally, tripotassium citrate was added to 100 μM final. This is Km for citrate (Wells et al (Eur. J. Biochem., 1992, 204, 249-255) and Houston et al (Biochim. Biophys. Acta, 1985, 844, 233-239)). Data analysis was performed using the curve fitting package Enzfitter (Elsevier Biosoft). For competitive inhibitors data was fitted to the equation
where v is the observed rate and I is the concentration of inhibitor added. Thus the dissociation constant Ki for the inhibitor could be found.

HepG2 cells = assay: Effect of compounds on cholesterol (CL) and fatty acid (FA) synthesis in HepG2 cells; format: cell-based; details: Homo sapiens; for activity at 1000 µM: Conc. 1000 μM; for activity at 3 µM: Conc. 3 μM; for activity at 10 µM: Conc. 10 μM; for activity at 30 µM: Conc. 30 μM
Method: 2. Measurement of effect of compounds on cholesterol (CL) and fatty acid (FA) synthesis in HepG2 Cells HepG2 cells were cultured in 24-well cell culture plates in DMEM (Dulbecco's Modified Eagle's Medium) containing Hepes (20 mM), bicarbonate (10 mM), glutamine (2 mM) and foetal calf serum (10% w/v). Once the cells had grown to between 80% and 90% confluence, the medium was replaced by DMEM without the addition of foetal calf serum and the cells incubated overnight. The rates of cholesterol and fatty acid synthesis were then measured by the addition of ^3 H2 O, to a specific radioactivity of 71 mCi/mmol, for the final 90 min of the incubation. Vehicle or test compound were added to the medium either 1.5 or 14.5 hr prior to the addition of ^3 H2 O to give the final desired concentration. Incubations were terminated and the rates of cholesterol and fatty acid synthesis determined from the amounts of ^3 H incorporated into cellular cholesterol and fatty acids as described previously (Berkhout et al.; Biochem J., 1990, 272, 181).

human ATP citrate lyase = molecular target: T2, human ATP citrate lyase (Homo sapiens, UniProt P53396); assay: Assay of ATP Citrate lyase in the presence of inhibitors (human enzyme); format: biochemical; details: 100 μM citrate, pH 8.0, 25° C.
T2 construct: made in house
T2 sequence (P53396 1-1101): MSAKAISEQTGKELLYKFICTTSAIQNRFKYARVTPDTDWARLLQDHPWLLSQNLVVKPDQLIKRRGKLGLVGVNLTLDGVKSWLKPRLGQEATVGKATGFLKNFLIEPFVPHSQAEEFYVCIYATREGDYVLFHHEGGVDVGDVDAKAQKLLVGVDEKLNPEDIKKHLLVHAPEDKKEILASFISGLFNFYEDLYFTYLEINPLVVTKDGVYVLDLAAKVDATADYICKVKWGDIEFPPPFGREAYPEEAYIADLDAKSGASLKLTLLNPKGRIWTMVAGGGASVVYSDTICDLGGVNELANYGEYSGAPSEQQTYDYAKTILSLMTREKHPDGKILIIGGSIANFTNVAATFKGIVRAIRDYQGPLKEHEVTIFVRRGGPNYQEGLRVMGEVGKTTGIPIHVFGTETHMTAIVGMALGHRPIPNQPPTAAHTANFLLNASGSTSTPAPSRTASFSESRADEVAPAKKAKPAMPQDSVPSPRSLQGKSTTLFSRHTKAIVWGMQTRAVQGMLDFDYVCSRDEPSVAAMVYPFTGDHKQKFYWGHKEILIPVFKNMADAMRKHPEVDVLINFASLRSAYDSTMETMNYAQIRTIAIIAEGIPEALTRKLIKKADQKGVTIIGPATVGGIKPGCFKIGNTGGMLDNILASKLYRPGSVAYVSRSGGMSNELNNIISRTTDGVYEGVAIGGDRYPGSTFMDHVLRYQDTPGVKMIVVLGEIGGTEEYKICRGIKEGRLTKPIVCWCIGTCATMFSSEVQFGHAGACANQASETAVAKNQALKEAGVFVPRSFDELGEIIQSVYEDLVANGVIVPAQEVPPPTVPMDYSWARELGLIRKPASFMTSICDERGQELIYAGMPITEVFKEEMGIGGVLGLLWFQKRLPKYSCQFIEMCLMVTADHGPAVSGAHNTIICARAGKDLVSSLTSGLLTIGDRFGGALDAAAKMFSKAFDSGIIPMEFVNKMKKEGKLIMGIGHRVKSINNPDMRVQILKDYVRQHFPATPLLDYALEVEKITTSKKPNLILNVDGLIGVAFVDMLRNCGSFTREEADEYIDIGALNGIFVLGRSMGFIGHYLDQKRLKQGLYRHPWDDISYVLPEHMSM
Method: as §1, with “Purification of ATP Citrate lyase-human and rat enzymes (ii) human enzyme Human ATP citrate lyase was prepared as described in European Journal of Biochemistry, 1992, 204, 491-99, with modifications for large scale purification according to Wells as referred to above. Protein obtained by this method was pure as judged by SDS-PAGE. Assay of ATP Citrate lyase in the presence of inhibitors ATP Citrate” for “ATP Citrate”, “method of […] al (J.” for “method of Linnet al (J.”, “(Elsevier Biosoft). […]” for “(Elsevier Biosoft). For competitive inhibitors data was fitted to the equation”

[1] = test system: Sprague Dawley rat plasma cholesterol and triglyceride levels; assay: Measurement of hyperlipidaemic activity in rats: plasma cholesterol and triglyceride levels; format: in vivo; details: in diet at 0.125% (w:w) for 7 days
Method: (§2) 3. Measurement of hyperlipidaemic activity in rats and dogs
The compound of example 2 was administered to Spmgue Dawley rats in their diet at a concentration of 0.125% (w:w) for 7 days.

[2] = test system: Beagle dog plasma cholesterol and triglyceride levels; assay: Measurement of hyperlipidaemic activity in dogs: plasma cholesterol and triglyceride levels; format: in vivo; details: male Beagle dogs; 25 mg/kg/day for 2 weeks
Method: as §2
25 (b) Dog The compound of example 2 was administered to male Beagle dogs at a level of 25 mg/kg/day for 2 weeks.

Compound: O=C(O)[C@H](O)[C@@]1(O)C[C@@H](CCCCCCc2ccc(Cl)cc2Cl)OC1=O (relative stereo) [Example 11, ±(1'R*,3S*,5R*) 3-[Carboxy(hydroxy)methyl]-5-[6-(2,4-dichlorophenyl)hexyl]-3-hydroxytetrahydrofuran-2-one]
activity at 3 µM (HepG2 cells; read-out: CL synthesis): 69 ± 13%
activity at 3 µM (HepG2 cells; read-out: FA synthesis): 74 ± 11%
activity at 10 µM (HepG2 cells; read-out: CL synthesis): 86 ± 29%
activity at 10 µM (HepG2 cells; read-out: FA synthesis): 76 ± 13%

Compound: O=C(O)C[C@]1(O)C[C@H](CCCCCCc2ccc(Cl)cc2Cl)OC1=O (relative stereo) [Example 2, ±(3R*, 5S*) 3-Carboxymethyl-5-[6-(2,4-dichlorophenyl)hexyl]3-hydroxytetrahydrofuran-2-one]
activity against ATP citrate lyase (rat) (rat ATP citrate lyase): inactive
activity at 30 µM (HepG2 cells; read-out: CL synthesis): 8 ± 3%
activity at 30 µM (HepG2 cells; read-out: FA synthesis): 32 ± 3%
reduction of plasma cholesterol levels [1]: 30%
reduction of plasma triglyceride levels [1]: 64%
reduction of plasma cholesterol levels [2]: 20-25%
reduction of plasma triglyceride levels [2]: 20-25%

Now from value to molecule, other results behind:

Ki (rat ATP citrate lyase): 800 nM
Compound: O=C(O)C[C@](O)(C[C@@H](O)CCCCCCc1ccc(Cl)cc1Cl)C(=O)O (relative stereo) [Example 1, ±(3R*, 5S*) 3-Carboxy-11-(2,4-dichlorophenyl)-3,5-dihydroxyundecanoic acid, disodium salt]
activity at 1000 µM (HepG2 cells; read-out: CL synthesis): 80 ± 6%
activity at 1000 µM (HepG2 cells; read-out: FA synthesis): 123 ± 3%

Ki (rat ATP citrate lyase): 700 nM
Ki (human ATP citrate lyase): 760 nM
Compound: O=C(O)C[C@](O)(C[C@@H](O)CCCCCCc1ccc(Cl)cc1Cl)C(=O)O (single isomer, unassigned) [Example 18, (+) (3R*,5S*) 3-Carboxy-11-(2,4-dichlorophenyl)-3,5-dihydroxyundecanoic acid, disodium salt]

Ki (rat ATP citrate lyase): 700 nM
Ki (human ATP citrate lyase): 690 nM
Compound: O=C(O)C[C@](O)(C[C@@H](O)CCCCCCc1ccc(Cl)cc1Cl)C(=O)O (single isomer, unassigned) [Example 20, (-) (3R*,5S*) 3-Carboxy-11-(2 4-dichlorophenyl)-3 5-dihydroxyundecanoic acid, disodium salt]
